Reference: patent publication US4749703A, “Calcium antagonist piperazine derivatives, and compositions therefor” (Dainippon Pharmaceutical Co., Ltd., priority 1984, dated 1988)

Columns and labels:
[1] = tested on: spontaneously hypertensive rats (SHR); assay: Antihypertensive activity in spontaneously hypertensive rats (SHR); assay type: in vivo, male SHR (Okamoto and Aoki strain) rats; details: 30 mg/kg
Procedure: The animals used were male SHR [Okamoto and Aoki strain; cf. Jap. Circul. […] Proc. Soc. […] The other end of the cannula was exposed through the skin on the back of the neck and fixed. After 1 to 4 days, the aortic cannula was connected to a pressure transducer (produced by Nihon Koden Co., Ltd., Japan; Model MP-4T), and conscious blood pressure was measured by direct method. On the day of the experiment, the blood pressure was measured for one hour prior to dosing. The test compound, suspended in 0.5% aqueous tragacanth solution, was administered orally at a volume of 3.0 ml/kg and the blood pressure was measured continuously for 5 hours.
The changes of blood pressure are expressed by the mean pressure calculated from the values of systolic and diastolic pressure.

[2] = tested on: vasopressin-induced ST depression; assay: Preventive effect on vasopressin-induced ST depression (experimental model of angina pectoris); assay type: in vivo, Male Donryu strain rats; set-up: key to Preventive effect on ST depression, 7 hours / Preventive effect on ST depression, 1 hour / Preventive effect on ST depression, 5 hours / Preventive effect on ST depression, 3 hours: +: Significantly different from vehicle control (P < 0.05); -: No significant difference; details: for Preventive effect on ST depression, 1 hour: 1 hour following administration; for Preventive effect on ST depression, 7 hours: 7 hours following administration
Procedure: (1) Preventive effect on vasopressin-induced ST depression (effect in experimental model of angina pectoris)
The test was carried out according to the method of Hatano et al. [cf. Pharmacometrics, 19, 311-317 (1980)].
Male Donryu strain rats, weighing 130-180 g, were anesthetized with 60 mg/kg (i.p.) of sodium pentobarbital. Lead II electrocardiogram was recorded. The ST depression produced with 0.2 IU/kg (i.v.) of vasopressin was recorded at intervals of a given period for 5 minutes after the administration of vasopressin. The test compound, suspended in 0.5% aqueous tragacanth solution, was administered orally 1, 3, 5 and 7 hours before the administration of vasopressin. The amplitude of ST depression was measured by means of the computer, and the data were analyzed statistically by two-dimensional analysis between the control group and the treated group to evaluate the effect of the test compound. Each group of 5 rats was used for each dose of the test compound.

[3] = tested on: methacholine-induced ST elevation; assay: Preventive effect on methacholine-induced ST elevation (experimental model of variant angina); assay type: in vivo, Male SD strain rats; details: i.v.; for ST elevation, administn. of M (8 μg) after administn. of test compd. (at peak time): ± S.E.
Procedure: (2) Preventive effect on methacholine-induced ST elevation (effect in experimental model of variant angina)
The test was carried out according to the method of Sakai et al. [cf. J. Pharmacol. Methods, 5, 325-336 (1981)].
Male SD strain rats, weighing about 500 g, were anesthetized with 60 mg/kg (i.p.) of sodium pentobarbital. Lead II electrocardiogram was recorded. The ST elevation was produced with 8.0 μg of metacholine given into the coronary […] through the cannula inserted from the right carotid artery. The test compound, dissolved in 5% ethanol-physiological saline solution, was administered intravenously. The amplitude of ST elevation was measured by means of the computer 0.5, 5 and 10 minutes after the administration of the test compound and afterward at intervals of 10-minute. The effect of the test compound was evaluated by comparing the amplitude of ST elevation after administration of the test compound with that before the administration. Each group of 5 rats was used for each dose of the test compound.
The abbreviation M in the table represents metacholine.

in vivo = details: mouse, mortality for 7 days
Description: STD-ddY strain mice were used in groups of 10 animals each.

O=C(CCCN1CCN(c2ccc(F)cc2)CC1)NC1c2ccccc2CSc2ccccc21 (stereo not shown) [Example 1(3), 11-[4-[4-(4-fluorophenyl)-1-piperazinyl]butyrylamino]-6,11-dihydrodibenzo[b,e]thiepin]
Peak time (time of maximum hypotensive effect) ([1]; p.o.): 5 h
maximum hypotensive effect (decrease compared with the initial blood pressure) ([1]; oral): 12-14%
time of maximum hypotensive effect ([1]; oral): 4 to 5 h
Preventive effect on ST depression, 1 hour ([2]; 3 mg/kg p.o.): +
Preventive effect on ST depression, 3 hours ([2]; 3 mg/kg p.o., 3 hours following administration): -
Preventive effect on ST depression, 1 hour ([2]; 10 mg/kg p.o.): +
Preventive effect on ST depression, 5 hours ([2]; 10 mg/kg p.o., 5 hours following administration): +
Preventive effect on ST depression, 7 hours ([2]; 10 mg/kg p.o.): -
Preventive effect on ST depression, 7 hours ([2]; 30 mg/kg p.o.): +
preventive effect on the ST depression (in words) ([2]; p.o., compared with diltiazem hydrochloride): more prolonged preventive effect on the ST depression than diltiazem hydrochloride
peak time (preventive effect on ST elevation) ([3]; 0.1 mg/kg): 0.5 min
ST elevation, administn. of M (8 μg) after administn. of test compd. (at peak time) ([3]; 0.1 mg/kg, * P < 0.05): +0.14 ± 0.02 ΔmV
peak time (preventive effect on ST elevation) ([3]; 0.3 mg/kg): 5 min
ST elevation, administn. of M (8 μg) after administn. of test compd. (at peak time) ([3]; 0.3 mg/kg, * P < 0.05, ** P < 0.01): +0.09 ± 0.02 ΔmV
peak time (preventive effect on ST elevation) ([3]; 1.0 mg/kg): 0.5 min
ST elevation, administn. of M (8 μg) after administn. of test compd. (at peak time) ([3]; 1.0 mg/kg, ** P < 0.01): +0.09 ± 0.01 ΔmV
preventive effect on the ST elevation (in words) ([3]; compared with diltiazem hydrochloride): preventive effect on the ST elevation comparable to that of diltiazem hydrochloride
LD50 at 168 h (in vivo; ip, single intraperitoneal administration): > 1000 mg/kg
LD50 at 168 h (in vivo; single oral administration): > 4000 mg/kg
